Positions of bridges follow the written chain, without caps; N, C: chain ends. Chains are numbered I, II in the order given. No end group written: not given here.
Tests used:
[1] = test system: Omicron variant (B.1.1.529); assay: Post-exposure antiviral assay in hamsters, Omicron; type: in vivo
[2] = test system: SARS-CoV-2 (B.1.1.63, D614G); type: cell-based
SARS-CoV-2 Beta variant = details: 18 h
SARS-CoV-2 Alpha variant = details: 18 h
SARS-CoV-2 Delta variant = details: 18 h

## I: GAICHPVFCPRRYKQIGTCGLPGTKCCKKPKK / II: GAICHPVFCPRRYKQIGTCGLPGTKCCKKPK / III: GAICHPVFCPRRYKQIGTCGLPGTKCCKKP / IV: GAICHPVFCPRRYKQIGTCGLPGTKCCKKP (amide I:31-IV:C, I:32-II:C, II:31-III:C; cysteines drawn unpaired) [4H30]
[1]; […], plaque assay, n = 4
  Omicron variant titers in the nasal wash: significantly reduce
[1]; hamster, in vivo
  inhibition of Omicron replication in hamster lungs: more than 20 fold
[2]
  inhibition of SARS-CoV-2 replication when added at 6 hpi: significantly inhibit
SARS-CoV-2 Beta variant
  IC50: 0.89 µg/mL
SARS-CoV-2 Alpha variant
  IC50: 0.75 µg/mL
SARS-CoV-2 Delta variant
  IC50: 0.79 µg/mL

From publication PMC9243000 (Cell Discovery, 2022)
